Measured values: US12281080B2, “Quinoline-based compounds and methods of inhibiting CDK8/19” (University of South Carolina, priority 2018, dated 2025)

Columns and labels:
[1] = biological target: ABL1-nonphosphorylated (Homo sapiens (Human), UniProt P00519); assay: KINOMEscan scanMAX; assay type: binding; settings: 2000 nM; read-out: Percent Control
[2] = biological target: NEK7 (Homo sapiens (Human), UniProt Q8TDX7); assay: KINOMEscan scanMAX; assay type: binding; settings: 2000 nM; read-out: Percent Control
[3] = biological target: MET(M1250T) (Homo sapiens (Human), UniProt P08581, M1250T); assay: KINOMEscan scanMAX; assay type: binding; settings: 2000 nM; read-out: Percent Control
[4] = biological target: SLK (Homo sapiens (Human), UniProt Q9H2G2); assay: KINOMEscan scanMAX; assay type: binding; settings: 2000 nM; read-out: Percent Control
[5] = biological target: PKMYT1 (Homo sapiens (Human), UniProt Q99640); assay: KINOMEscan scanMAX; assay type: binding; settings: 2000 nM; read-out: Percent Control
[6] = biological target: GSK3A (Homo sapiens (Human), UniProt P49840); assay: KINOMEscan scanMAX; assay type: binding; settings: 2000 nM; read-out: Percent Control
[7] = biological target: IKK-beta (IKBKB) (Homo sapiens (Human), UniProt O14920); assay: KINOMEscan scanMAX; assay type: binding; settings: 2000 nM; read-out: Percent Control
[8] = biological target: NEK2 (Homo sapiens (Human), UniProt P51955); assay: KINOMEscan scanMAX; assay type: binding; settings: 2000 nM; read-out: Percent Control
[9] = biological target: DYRK1A (Homo sapiens (Human), UniProt Q13627); assay: KINOMEscan scanMAX; assay type: binding; settings: 2000 nM; read-out: Percent Control
[10] = biological target: CSF1R-autoinhibited (Homo sapiens (Human), UniProt P07333); assay: KINOMEscan scanMAX; assay type: binding; settings: 2000 nM; read-out: Percent Control
[11] = biological target: RSK1(Kin.Dom.2-C-terminal) (RPS6KA1) (Homo sapiens (Human), UniProt Q15418); assay: KINOMEscan scanMAX; assay type: binding; settings: 2000 nM; read-out: Percent Control
[12] = biological target: RIOK1 (Homo sapiens (Human), UniProt Q9BRS2); assay: KINOMEscan scanMAX; assay type: binding; settings: 2000 nM; read-out: Percent Control
[13] = biological target: TNK1 (Homo sapiens (Human), UniProt Q13470); assay: KINOMEscan scanMAX; assay type: binding; settings: 2000 nM; read-out: Percent Control
[14] = biological target: MAK (Homo sapiens (Human), UniProt P20794); assay: KINOMEscan scanMAX; assay type: binding; settings: 2000 nM; read-out: Percent Control
[15] = biological target: PIK3CD (Homo sapiens (Human), UniProt O00329); assay: KINOMEscan scanMAX; assay type: binding; settings: 2000 nM; read-out: Percent Control
[16] = biological target: PFTAIRE2 (CDK15) (Homo sapiens (Human), UniProt Q96Q40); assay: KINOMEscan scanMAX; assay type: binding; settings: 2000 nM; read-out: Percent Control
[17] = biological target: BIKE (BMP2K) (Homo sapiens (Human), UniProt Q9NSY1); assay: KINOMEscan scanMAX; assay type: binding; settings: 2000 nM; read-out: Percent Control
[18] = biological target: PIP5K1A (Homo sapiens (Human), UniProt Q99755); assay: KINOMEscan scanMAX; assay type: binding; settings: 2000 nM; read-out: Percent Control
[19] = biological target: JAK1(JH2domain-pseudokinase) (Homo sapiens (Human), UniProt P23458); assay: KINOMEscan scanMAX; assay type: binding; settings: 2000 nM; read-out: Percent Control
[20] = biological target: MARK4 (Homo sapiens (Human), UniProt Q96L34); assay: KINOMEscan scanMAX; assay type: binding; settings: 2000 nM; read-out: Percent Control
[21] = biological target: TESK1 (Homo sapiens (Human), UniProt Q15569); assay: KINOMEscan scanMAX; assay type: binding; settings: 2000 nM; read-out: Percent Control
[22] = biological target: ACVR1 (Homo sapiens (Human), UniProt Q04771); assay: KINOMEscan scanMAX; assay type: binding; settings: 2000 nM; read-out: Percent Control
[23] = biological target: RSK4(Kin.Dom.2-C-terminal) (RPS6KA6) (Homo sapiens (Human), UniProt Q9UK32); assay: KINOMEscan scanMAX; assay type: binding; settings: 2000 nM; read-out: Percent Control
[24] = biological target: PAK1 (Homo sapiens (Human), UniProt Q13153); assay: KINOMEscan scanMAX; assay type: binding; settings: 2000 nM; read-out: Percent Control
[25] = biological target: PIK3CA(C420R) (Homo sapiens (Human), UniProt P42336, C420R); assay: KINOMEscan scanMAX; assay type: binding; settings: 2000 nM; read-out: Percent Control
[26] = tested on: FLT3(ITD); assay: KINOMEscan scanMAX; assay type: binding, human; settings: 2000 nM
[27] = biological target: CDK7 (Homo sapiens (Human), UniProt P50613); assay: KINOMEscan scanMAX; assay type: binding; settings: 2000 nM; read-out: Percent Control
[28] = biological target: PIM2 (Homo sapiens (Human), UniProt Q9P1W9); assay: KINOMEscan scanMAX; assay type: binding; settings: 2000 nM; read-out: Percent Control
[29] = biological target: MAP4K2 (Homo sapiens (Human), UniProt Q12851); assay: DiscoverX Kd assay
[30] = biological target: PRKCI (Homo sapiens (Human), UniProt P41743); assay: KINOMEscan scanMAX; assay type: binding; settings: 2000 nM; read-out: Percent Control
[31] = biological target: AURKC (Homo sapiens (Human), UniProt Q9UQB9); assay: KINOMEscan scanMAX; assay type: binding; settings: 2000 nM; read-out: Percent Control
[32] = biological target: EGFR(L747-S752del, P753S) (Homo sapiens (Human), UniProt P00533, DEL747-752/P753S); assay: KINOMEscan scanMAX; assay type: binding; settings: 2000 nM; read-out: Percent Control
[33] = biological target: MAP3K15 (Homo sapiens (Human), UniProt Q6ZN16); assay: KINOMEscan scanMAX; assay type: binding; settings: 2000 nM; read-out: Percent Control
[34] = biological target: CAMK2D (Homo sapiens (Human), UniProt Q13557); assay: KINOMEscan scanMAX; assay type: binding; settings: 2000 nM; read-out: Percent Control
[35] = biological target: ARK5 (NUAK1) (Homo sapiens (Human), UniProt O60285); assay: KINOMEscan scanMAX; assay type: binding; settings: 2000 nM; read-out: Percent Control
[36] = biological target: RPS6KA5(Kin.Dom.2-C-terminal) (Homo sapiens (Human), UniProt O75582); assay: KINOMEscan scanMAX; assay type: binding; settings: 2000 nM; read-out: Percent Control
[37] = biological target: ALK(L1196M) (Homo sapiens (Human), UniProt Q9UM73, L1196M); assay: KINOMEscan scanMAX; assay type: binding; settings: 2000 nM; read-out: Percent Control
[38] = biological target: LATS1 (Homo sapiens (Human), UniProt O95835); assay: KINOMEscan scanMAX; assay type: binding; settings: 2000 nM; read-out: Percent Control
[39] = biological target: CDKL5 (Homo sapiens (Human), UniProt O76039); assay: KINOMEscan scanMAX; assay type: binding; settings: 2000 nM; read-out: Percent Control

RIOK1, sequence (Q9BRS2 whole entry): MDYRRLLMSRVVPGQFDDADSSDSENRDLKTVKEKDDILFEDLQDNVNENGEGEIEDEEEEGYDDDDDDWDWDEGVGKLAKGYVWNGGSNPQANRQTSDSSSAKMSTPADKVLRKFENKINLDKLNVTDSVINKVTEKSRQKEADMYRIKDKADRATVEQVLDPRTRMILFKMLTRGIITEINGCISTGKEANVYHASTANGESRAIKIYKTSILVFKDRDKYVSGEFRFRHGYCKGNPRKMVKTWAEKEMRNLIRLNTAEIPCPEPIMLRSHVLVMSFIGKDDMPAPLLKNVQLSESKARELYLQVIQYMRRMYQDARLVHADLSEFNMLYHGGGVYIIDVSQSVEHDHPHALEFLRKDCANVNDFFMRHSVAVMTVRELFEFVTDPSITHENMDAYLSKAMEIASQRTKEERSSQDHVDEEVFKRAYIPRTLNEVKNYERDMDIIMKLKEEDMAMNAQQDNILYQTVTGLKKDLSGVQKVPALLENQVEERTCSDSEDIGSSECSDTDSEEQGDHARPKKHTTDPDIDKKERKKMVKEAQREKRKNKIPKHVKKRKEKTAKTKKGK
TNK1, sequence (Q13470 whole entry): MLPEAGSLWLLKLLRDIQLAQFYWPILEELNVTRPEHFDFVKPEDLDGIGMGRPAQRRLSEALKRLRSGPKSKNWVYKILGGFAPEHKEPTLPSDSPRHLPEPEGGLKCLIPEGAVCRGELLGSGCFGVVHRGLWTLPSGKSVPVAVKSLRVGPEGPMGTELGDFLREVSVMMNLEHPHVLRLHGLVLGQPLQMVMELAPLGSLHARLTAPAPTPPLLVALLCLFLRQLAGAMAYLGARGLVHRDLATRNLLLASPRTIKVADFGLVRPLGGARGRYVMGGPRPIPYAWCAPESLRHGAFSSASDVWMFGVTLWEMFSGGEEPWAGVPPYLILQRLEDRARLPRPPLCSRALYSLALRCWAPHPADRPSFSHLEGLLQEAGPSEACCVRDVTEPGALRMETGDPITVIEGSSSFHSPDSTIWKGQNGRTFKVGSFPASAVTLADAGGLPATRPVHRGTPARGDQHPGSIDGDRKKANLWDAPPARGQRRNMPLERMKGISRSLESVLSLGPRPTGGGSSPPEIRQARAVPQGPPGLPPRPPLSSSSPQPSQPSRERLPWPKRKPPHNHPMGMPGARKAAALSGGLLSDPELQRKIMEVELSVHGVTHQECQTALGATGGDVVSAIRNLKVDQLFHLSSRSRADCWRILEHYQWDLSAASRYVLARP
ALK(L1196M), sequence (Q9UM73 19-1620 L1196M): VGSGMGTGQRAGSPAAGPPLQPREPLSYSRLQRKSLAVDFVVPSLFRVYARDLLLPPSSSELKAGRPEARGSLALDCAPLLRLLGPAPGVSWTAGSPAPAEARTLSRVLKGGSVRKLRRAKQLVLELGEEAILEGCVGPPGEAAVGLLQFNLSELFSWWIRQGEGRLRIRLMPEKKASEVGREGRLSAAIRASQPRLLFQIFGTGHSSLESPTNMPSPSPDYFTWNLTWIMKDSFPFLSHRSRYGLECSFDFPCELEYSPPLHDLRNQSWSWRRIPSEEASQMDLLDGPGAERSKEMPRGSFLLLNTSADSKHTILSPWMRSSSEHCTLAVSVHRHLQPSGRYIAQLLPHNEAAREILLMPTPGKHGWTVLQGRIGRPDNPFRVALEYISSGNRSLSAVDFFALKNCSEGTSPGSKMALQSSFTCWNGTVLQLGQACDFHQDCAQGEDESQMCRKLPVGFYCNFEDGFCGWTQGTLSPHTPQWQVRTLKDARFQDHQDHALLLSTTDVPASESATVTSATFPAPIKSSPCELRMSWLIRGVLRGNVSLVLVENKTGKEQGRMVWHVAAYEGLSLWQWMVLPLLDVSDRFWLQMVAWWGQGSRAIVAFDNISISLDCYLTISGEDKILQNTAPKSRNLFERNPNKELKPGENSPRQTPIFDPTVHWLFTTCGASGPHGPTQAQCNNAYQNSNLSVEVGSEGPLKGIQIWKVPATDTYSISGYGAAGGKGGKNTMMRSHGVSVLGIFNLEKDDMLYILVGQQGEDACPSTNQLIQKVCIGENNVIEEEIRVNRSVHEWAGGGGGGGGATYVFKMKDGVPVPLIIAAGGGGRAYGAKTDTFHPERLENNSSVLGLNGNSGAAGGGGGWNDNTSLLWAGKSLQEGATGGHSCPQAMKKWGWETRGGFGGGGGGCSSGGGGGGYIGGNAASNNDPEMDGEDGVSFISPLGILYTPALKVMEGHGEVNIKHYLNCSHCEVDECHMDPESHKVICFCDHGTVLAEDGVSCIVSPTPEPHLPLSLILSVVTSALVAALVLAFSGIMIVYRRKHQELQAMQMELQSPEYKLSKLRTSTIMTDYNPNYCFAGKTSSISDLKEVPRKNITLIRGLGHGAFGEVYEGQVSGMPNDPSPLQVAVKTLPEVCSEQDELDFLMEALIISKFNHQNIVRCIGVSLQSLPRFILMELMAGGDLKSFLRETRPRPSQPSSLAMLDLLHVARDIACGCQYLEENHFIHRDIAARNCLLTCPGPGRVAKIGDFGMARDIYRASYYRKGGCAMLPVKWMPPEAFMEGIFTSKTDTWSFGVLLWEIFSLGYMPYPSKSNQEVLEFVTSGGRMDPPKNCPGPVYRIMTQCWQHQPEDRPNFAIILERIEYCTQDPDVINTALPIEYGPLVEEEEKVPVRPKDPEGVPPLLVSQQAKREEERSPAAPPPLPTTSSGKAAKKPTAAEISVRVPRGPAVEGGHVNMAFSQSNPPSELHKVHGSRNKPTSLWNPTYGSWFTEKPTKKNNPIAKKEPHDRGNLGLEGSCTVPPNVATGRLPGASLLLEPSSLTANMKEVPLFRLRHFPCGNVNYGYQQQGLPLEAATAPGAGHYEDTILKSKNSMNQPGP
NEK7, sequence (Q8TDX7 whole entry): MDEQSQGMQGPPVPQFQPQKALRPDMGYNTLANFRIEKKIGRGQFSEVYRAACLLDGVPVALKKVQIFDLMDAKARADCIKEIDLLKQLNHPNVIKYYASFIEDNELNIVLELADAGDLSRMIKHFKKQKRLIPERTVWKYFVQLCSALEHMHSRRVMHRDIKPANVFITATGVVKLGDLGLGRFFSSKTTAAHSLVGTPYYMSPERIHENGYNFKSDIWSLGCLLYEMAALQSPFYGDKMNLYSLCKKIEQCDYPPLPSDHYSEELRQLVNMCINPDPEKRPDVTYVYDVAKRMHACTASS
EGFR(L747-S752del, P753S), sequence (P00533 other isoform, or with tags, fused parts or gaps P753S/del L747-S752): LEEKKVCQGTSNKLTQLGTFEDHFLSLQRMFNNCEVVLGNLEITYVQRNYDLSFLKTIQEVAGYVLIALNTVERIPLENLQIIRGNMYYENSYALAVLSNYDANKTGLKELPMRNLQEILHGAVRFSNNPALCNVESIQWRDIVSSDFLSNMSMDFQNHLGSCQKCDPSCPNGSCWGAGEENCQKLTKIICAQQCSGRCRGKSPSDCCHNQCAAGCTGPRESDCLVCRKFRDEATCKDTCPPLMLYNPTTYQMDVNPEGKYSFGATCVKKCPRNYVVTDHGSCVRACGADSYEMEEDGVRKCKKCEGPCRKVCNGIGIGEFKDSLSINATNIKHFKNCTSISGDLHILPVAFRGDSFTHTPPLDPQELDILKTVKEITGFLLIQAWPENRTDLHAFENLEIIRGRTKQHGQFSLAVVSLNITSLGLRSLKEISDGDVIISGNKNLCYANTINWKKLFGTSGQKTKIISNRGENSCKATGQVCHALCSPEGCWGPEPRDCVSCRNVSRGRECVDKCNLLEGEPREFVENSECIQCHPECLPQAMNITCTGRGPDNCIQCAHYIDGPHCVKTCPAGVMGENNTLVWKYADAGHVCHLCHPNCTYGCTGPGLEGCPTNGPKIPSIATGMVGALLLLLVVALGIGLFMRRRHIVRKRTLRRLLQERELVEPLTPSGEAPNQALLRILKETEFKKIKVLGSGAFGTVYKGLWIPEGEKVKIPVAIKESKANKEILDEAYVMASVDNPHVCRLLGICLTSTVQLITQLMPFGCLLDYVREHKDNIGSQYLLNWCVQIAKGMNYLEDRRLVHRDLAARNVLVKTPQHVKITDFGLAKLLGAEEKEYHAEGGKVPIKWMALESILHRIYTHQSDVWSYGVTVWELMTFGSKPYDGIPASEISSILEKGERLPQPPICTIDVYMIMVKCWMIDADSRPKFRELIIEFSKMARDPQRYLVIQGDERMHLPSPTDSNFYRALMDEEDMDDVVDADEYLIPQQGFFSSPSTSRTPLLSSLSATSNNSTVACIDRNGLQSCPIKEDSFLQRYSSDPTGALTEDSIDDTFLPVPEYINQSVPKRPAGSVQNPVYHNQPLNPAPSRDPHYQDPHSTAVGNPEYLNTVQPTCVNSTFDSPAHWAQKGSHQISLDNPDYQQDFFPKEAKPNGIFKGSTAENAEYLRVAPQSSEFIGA
RSK1(Kin.Dom.2-C-terminal) (RPS6KA1), sequence (Q15418 418-675): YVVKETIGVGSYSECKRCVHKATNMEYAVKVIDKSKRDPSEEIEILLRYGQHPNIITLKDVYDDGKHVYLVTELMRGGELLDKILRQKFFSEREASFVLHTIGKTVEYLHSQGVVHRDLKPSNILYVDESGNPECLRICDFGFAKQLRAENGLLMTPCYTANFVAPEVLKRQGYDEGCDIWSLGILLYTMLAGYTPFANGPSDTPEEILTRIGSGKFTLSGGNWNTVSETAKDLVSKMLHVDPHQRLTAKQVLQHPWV
RSK4(Kin.Dom.2-C-terminal) (RPS6KA6), sequence (Q9UK32 426-683 limits assumed): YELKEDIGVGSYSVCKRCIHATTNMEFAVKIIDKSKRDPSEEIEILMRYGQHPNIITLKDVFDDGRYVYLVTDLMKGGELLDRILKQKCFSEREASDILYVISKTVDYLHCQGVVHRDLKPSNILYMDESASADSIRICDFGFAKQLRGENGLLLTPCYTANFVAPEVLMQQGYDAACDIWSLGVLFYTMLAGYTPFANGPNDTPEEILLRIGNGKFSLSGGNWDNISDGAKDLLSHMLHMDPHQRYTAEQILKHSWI

`CN1CCN(C(=O)c2ccc3cc(CCNc4ccnc5ccc(C#N)cc45)ccc3c2)CC1` [compound 6148, 4-((2-(6-(4-methylpiperazine-1-carbonyl)naphthalen-2-yl)ethyl)amino)quinoline-6-carbonitrile] showed a remaining binding at 2 µM [1] of 71%, a remaining binding at 2 µM [2] of 94% and a remaining binding at 2 µM [3] of 88%. For the same compound, the remaining binding at 2 µM [4] was 92%, the remaining binding at 2 µM [5] was 100% and the remaining binding at 2 µM [6] was 94%. For the same compound, the remaining binding at 2 µM [7] was 76%, the remaining binding at 2 µM [8] was 100% and the remaining binding at 2 µM [9] was 63%. The remaining binding at 2 µM [10] was 91%, the remaining binding at 2 µM [11] was 97% and the remaining binding at 2 µM [12] was 94%. For the same compound, the remaining binding at 2 µM [13] was 95%, the remaining binding at 2 µM [14] was 100% and the remaining binding at 2 µM [15] was 61%. The remaining binding at 2 µM [16] was 100%, the remaining binding at 2 µM [17] was 97% and the remaining binding at 2 µM [18] was 84%. For the same compound, the remaining binding at 2 µM [19] was 58%, the remaining binding at 2 µM [20] was 78% and the remaining binding at 2 µM [21] was 96%. The remaining binding at 2 µM [22] was 92%, the remaining binding at 2 µM [23] was 96% and the remaining binding at 2 µM [24] was 92%. The remaining binding at 2 µM [25] was 73%, the “Percent Control” value [26] was 97% and the remaining binding at 2 µM [27] was 69%. It also gave a remaining binding at 2 µM [28] of 81%, a Kd [29] of 0.94 µM and a remaining binding at 2 µM [30] of 89%. For the same compound, the remaining binding at 2 µM [31] was 100%, the remaining binding at 2 µM [32] was 98% and the remaining binding at 2 µM [33] was 83%. For the same compound, the remaining binding at 2 µM [34] was 94%, the remaining binding at 2 µM [35] was 89% and the remaining binding at 2 µM [36] was 100%. It also gave a remaining binding at 2 µM [37] of 92%, a remaining binding at 2 µM [38] of 76% and a remaining binding at 2 µM [39] of 70%.
